Test results published in patent US9999222B2, “Herbicidal combination comprising azines” (BASF SE, priority 2014, dated 2018).
Values joined by “and” are separate entries in the source; they are usually repeats but may differ in a detail not shown here. Identical values can stand only once. Like-named read-outs stand apart in the source and are kept apart here.

Tests used:
Experiment in all cases: Greenhouse test, pre-emergence treatment
ALOMY = format: in vivo, Alopecurus myosuroides; settings: pre-emergence
Procedure, shortened: (§1)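 Seeds were sown in loamy sand with approximately 3.0% humus, then sprayed at once with actives suspended or emulsified in water. Pots were watered, hooded until rooting, held at 10-25° C. or 20-35° C. by species for 2 to 4 weeks, and scored 0 (no damage) to 100 (no emergence/complete destruction).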

ECHCG = format: in vivo, Echinocloa crus-galli; settings: Echinochloa crus-galli, 480 h, read-out: observed % activity 20 DAT
Procedure, shortened: as §1

POLCO = format: in vivo, Polygonum convolvulus; settings: pre-emergence
Procedure, shortened: as §1

SETFA = format: in vivo, Setaria faberi
Procedure, shortened: as §1

AVEFA = format: in vivo, Avena fatua; settings: pre-emergence
Procedure, shortened: as §1

BRADC = format: in vivo, Brachiaria decumbens; settings: Urochloa decumbens, pre-emergence, 480 h
Procedure, shortened: as §1

COMBE = format: in vivo, Commelina benghalensis; settings: Commelina benghalensis, 480 h, pre-emergence, read-out: observed % activity 20 DAT
Procedure, shortened: as §1

ELEIN = format: in vivo, Eleusine indica; settings: 500 g ai/ha
Procedure, shortened: as §1

EPHHL = format: in vivo, Euphorbia heterophylla; settings: Euphorbia heterophylla, pre-emergence, 480 h, pre-emergence, 1000 g ai/ha; read-out: observed % activity 20 DAT
Procedure, shortened: as §1

GALAP = format: in vivo, Galium aparine; settings: Galium aparine, pre-emergence, 480 h, 500 g ai/ha, 20 DAT; read-out: observed % activity
Procedure, shortened: as §1

GERPU = format: in vivo, Geranium pusillum; settings: Geranium pusillum, pre-emergence, 480 h, pre-emergence, read-out: observed % activity 20 DAT
Procedure, shortened: as §1

KCHSC = format: in vivo, Kochia scoparia; settings: Bassia scoparia, 480 h, pre-emergence, read-out: observed % activity 20 DAT
Procedure, shortened: as §1

LOLMU = format: in vivo, Lolium multiflorum; settings: Lolium multiflorum, pre-emergence, 480 h, pre-emergence, read-out: observed % activity 20 DAT
Procedure, shortened: as §1

PHACA = format: in vivo, Phalaris canariensis; settings: Phalaris canariensis, pre-emergence, 480 h, pre-emergence, read-out: observed % activity 20 DAT
Procedure, shortened: as §1

CCC(CC)Nc1c([N+](=O)[O-])cc(C)c(C)c1[N+](=O)[O-] [Pendimethalin, pendimethalin]
inhibition at 250 g/ha (ALOMY; Alopecurus myosuroides, 480 h, 250 g ai/ha, 20 DAT, read-out: observed % activity): 60%
inhibition at 500 g/ha (ALOMY; Alopecurus myosuroides, 480 h, 500 g ai/ha, 20 DAT, read-out: observed % activity): 85%
pest or weed control at 250 g/ha (ALOMY; Alopecurus myosuroides, 480 h, 250 g ai/ha, read-out: observed % activity 20 DAT): 45%
pest or weed control at 500 g/ha (ALOMY; Alopecurus myosuroides, 480 h, 500 g ai/ha, read-out: observed % activity 20 DAT): 65%
pest or weed control at 1000 g/ha (ALOMY; Alopecurus myosuroides, 480 h, 1000 g ai/ha, read-out: observed % activity 20 DAT): 80%
inhibition at 125 g/ha (ALOMY; Alopecurus myosuroides, 480 h, use rate 125 g ai/ha, read-out: observed % activity 20 DAT): 55%
pest or weed control at 250 g/ha (ALOMY; Alopecurus myosuroides, 480 h, use rate 250 g ai/ha, 20 DAT, read-out: observed % activity 20 DAT): 15%
pest or weed control at 1000 g/ha (ALOMY; Alopecurus myosuroides, 480 h, use rate 1000 g ai/ha, 20 DAT, read-out: observed % activity 20 DAT): 95%
inhibition at 1000 g/ha (ALOMY; Alopecurus myosuroides, 480 h, use rate 1000 g ai/ha, read-out: observed % activity 20 DAT): 95%
observed % activity 20 DAT (ALOMY; use rate 500 g ai/ha): 65% and 90%
observed % activity 20 DAT (ALOMY; use rate 1000 g ai/ha): 75%
inhibition at 125 g/ha (ECHCG; use rate 125 g ai/ha): 95%
pest or weed control at 250 g/ha (ECHCG; use rate 250 g ai/ha, 20 DAT): 98%
inhibition at 250 g/ha (ECHCG; use rate 250 g ai/ha): 98%
pest or weed control at 500 g/ha (POLCO; Fallopia convolvulus, 480 h, use rate 500 g ai/ha, 20 DAT, read-out: observed % activity 20 DAT): 60%
inhibition at 250 g/ha (POLCO; Fallopia convolvulus, 480 h, 250 g ai/ha, 20 DAT, read-out: observed % activity): 50%
inhibition at 500 g/ha (POLCO; Fallopia convolvulus, 480 h, 500 g ai/ha, 20 DAT, read-out: observed % activity): 60%
inhibition at 125 g/ha (POLCO; Fallopia convolvulus, 480 h, use rate 125 g ai/ha, read-out: observed % activity 20 DAT): 0%
inhibition at 500 g/ha (POLCO; Fallopia convolvulus, 480 h, use rate 500 g ai/ha, read-out: observed % activity 20 DAT): 60%
observed % activity 20 DAT (POLCO; use rate 500 g ai/ha): 45%
inhibition at 125 g/ha (SETFA; Setaria faberi, 480 h, use rate 125 g ai/ha, read-out: observed % activity 20 DAT): 98%
inhibition at 500 g/ha (SETFA; Setaria faberi, 480 h, use rate 500 g ai/ha, read-out: observed % activity 20 DAT): 98%
observed % activity 20 DAT (SETFA; use rate 500 g ai/ha, 20 DAT): 98%
inhibition at 500 g/ha (AVEFA; Avena fatua, 480 h, 500 g ai/ha, 20 DAT, read-out: observed % activity): 0%
observed % activity 20 DAT (AVEFA; 250 g ai/ha): 0%
inhibition at 500 g/ha (BRADC; 500 g ai/ha, 20 DAT, read-out: observed % activity): 75%
pest or weed control at 250 g/ha (BRADC; 250 g ai/ha, read-out: observed % activity 20 DAT): 35%
pest or weed control at 500 g/ha (BRADC; 500 g ai/ha, read-out: observed % activity 20 DAT): 55%
pest or weed control at 500 g/ha (COMBE; 500 g ai/ha): 10%
pest or weed control at 1000 g/ha (COMBE; 1000 g ai/ha): 40%
observed % activity 20 DAT (ELEIN): 100%
pest or weed control at 1000 g/ha (EPHHL): 55%
inhibition at 500 g/ha (GALAP): 30%
pest or weed control at 125 g/ha (GERPU; use rate 125 g ai/ha, 20 DAT): 90%
inhibition at 125 g/ha (GERPU; use rate 125 g ai/ha): 70%
inhibition at 250 g/ha (GERPU; use rate 250 g ai/ha): 90%
pest or weed control at 500 g/ha (GERPU; use rate 500 g ai/ha, 20 DAT): 70%
pest or weed control at 500 g/ha (KCHSC; use rate 500 g ai/ha, 20 DAT): 80%
inhibition at 125 g/ha (KCHSC; use rate 125 g ai/ha): 60%
inhibition at 125 g/ha (LOLMU; use rate 125 g ai/ha): 0%
inhibition at 250 g/ha (LOLMU; use rate 250 g ai/ha): 0%
pest or weed control at 1000 g/ha (LOLMU; use rate 1000 g ai/ha, 20 DAT): 55%
inhibition at 1000 g/ha (LOLMU; use rate 1000 g ai/ha): 55%
pest or weed control at 250 g/ha (PHACA; 250 g ai/ha): 0%
pest or weed control at 500 g/ha (PHACA; 500 g ai/ha): 45%
inhibition at 125 g/ha (PHACA; use rate 125 g ai/ha): 35%
pest or weed control at 250 g/ha (PHACA; use rate 250 g ai/ha, 20 DAT): 55%
inhibition at 250 g/ha (PHACA; use rate 250 g ai/ha): 55%
inhibition at 500 g/ha (PHACA; use rate 500 g ai/ha): 65%
